Assay results: patent US20160066603A1, “FULVIC ACID AND DERIVATIVES AND METHODS OF PREPARATION AND USE” (EMPIRE TECHNOLOGY DEVELOPMENT LLC, priority 2013, published 2016)

Assay type: physicochemical
Procedure: The degradation products of Example 1, recovered after three hours of hydrolysis, were evaluated as antioxidants and thermal stabilizers for PVC, low density polyethylene (LDPE), and polyvinyl alcohol (PVA) to evaluate the anti-oxidation efficiency using thermal analysis techniques (DSC, TGA, and DTG). The thermooxidative enthalpy change from DSC curves (e.g. FIGS. 1-3) and the % of HCl loss as a function of temperature represent the stability of polyethylene and PVC respectively.
The mechanism of stabilizing PVC is based on capturing the evolved HCl from dehydrochlorination by the metal ions and the transition metal, accordingly deactivating the catalytic role of HCl in the thermal decomposition.

Stability compared with the PVC control polymer: more stable than the PVC control polymer
Substance: fulvic acid
